Experimental data taken from article PMC6269873, “Substituted 3-Benzylcoumarins as Allosteric MEK1 Inhibitors: Design, Synthesis and Biological Evaluation as Antiviral Agents” (Molecules, 2013).
Like-named read-outs stand apart in the source and are kept apart here.

Legend:
phosphorylated MEK1 = phosphorylated MEK1 (Homo sapiens, UniProt Q02750); test: MEK1 binding assay (HTRF, tracer displacement); conditions: for inhibition at 2 µM: read-out: % binding (2 µM); for inhibition at 20 µM: read-out: % binding (20 µM)
Protocol: The homogeneous time resolved fluorescence (HTRF) assay was performed on a Proxiplate-384 F plus solid back plate (Perkin Elmer, Waltham, MA. USA) with 5 nM GST tagged phosphorylated MEK1 (GST-MEK1), 2 nM europium-labeled anti-GST antibody (Eu-anti-GST), 20 nM kinase tracer 236 and test compound at a variety of concentrations. In the reaction mixture, GST-MEK1 forms a complex with the Eu-anti-GST and the tracer. Excitation of europium (the donor) using a 340-nm excitation filter results in energy transfer to the fluorophore of the tracer. This energy transfer is detected by an increase in the fluorescence emission of the tracer at 665 nm and a decrease in the fluorescence emission of europium at 615 nm. The FRET ratio was calculated by dividing the emission signal at 665 nm by the emission signal at 615 nm. A competitor compound such as a MEK inhibitor replaces the tracer from the complex and decreases the FRET ratio accordingly. The plate was incubated in dark at room temperature for 30 min before measuring the fluorescent emission of each well at 665 and 615 nm using a 340-nm excitation filter, 100-µs delay time, and 200-µs integration time, on a PHERAStar plate reader (BMG Labtech, Durham, NC, USA). […] Data shown as %Inhibition normalized to AZD6244 at 100 µM.

[1] = HTRF binding to GST tagged phosphorylated MEK1, read-out: IC50

Sequence of phosphorylated MEK1 (Q02750 whole entry): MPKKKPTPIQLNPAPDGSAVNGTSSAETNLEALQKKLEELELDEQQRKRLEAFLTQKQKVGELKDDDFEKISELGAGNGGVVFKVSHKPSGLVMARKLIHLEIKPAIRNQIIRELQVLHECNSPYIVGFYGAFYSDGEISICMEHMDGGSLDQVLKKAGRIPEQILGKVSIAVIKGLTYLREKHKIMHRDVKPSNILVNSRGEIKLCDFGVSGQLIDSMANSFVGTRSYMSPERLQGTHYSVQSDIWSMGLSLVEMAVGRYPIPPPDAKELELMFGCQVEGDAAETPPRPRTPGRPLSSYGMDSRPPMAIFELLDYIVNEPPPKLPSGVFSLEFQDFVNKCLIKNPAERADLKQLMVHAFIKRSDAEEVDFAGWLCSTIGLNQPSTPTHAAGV

| SMILES | melting point | inhibition at 2 µM (phosphorylated MEK1) | inhibition at 20 µM (phosphorylated MEK1) | binding affinity (in words) (phosphorylated MEK1) | IC50 (phosphorylated MEK1) | IC50 (phosphorylated MEK1; [1]) |
| --- | --- | --- | --- | --- | --- | --- |
| O=c1cc(CO)c2ccc(O)cc2o1 [Compound 4j, 7-Hydroxy-4-(hydroxymethyl)-2H-chromen-2-one] | 148 to 149 °C | 36.3% | 33.6% |  |  |  |
| CCCc1c(Cc2ccc(F)cc2)c(=O)oc2cc(O)ccc12 [Compound 4h, 3-(4-Fluorobenzyl)-7-hydroxy-4-propyl-2H-chromen-2-one] | 130 to 131 °C | 20.9% | 20.4% |  |  |  |
| COc1ccc2cc(C(=O)c3ccccc3)c(=O)oc2c1 [Compound 86, 3-benzoyl-7-methoxycoumarin] | 149 to 150 °C | 7.96% | -8.83% |  |  |  |
| CCc1c(Cc2ccc(F)cc2)c(=O)oc2cc(OC(=O)C(C)(C)C)ccc12 [Compound 59, 4-Ethyl-3-(4-fluorobenzyl)-2-oxo-2H-chromen-7-yl pivalate] | 103 to 104 °C | 45.9% | 23.4% | inactive |  |  |
| CCc1c(Cc2ccccc2)c(=O)oc2cc(OC(=O)N(C)C)ccc12 [Compound 15, 3-Benzyl-4-ethyl-2-oxo-2H-chromen-7-yl dimethylcarbamate] | 85 to 86 °C | 85% | 92.8% |  | 163 nM |  |
| CCCC(=O)Oc1cc2oc(=O)c(Cc3ccccc3)c(C)c2cc1Cl [Compound 41, 3-Benzyl-6-chloro-4-methyl-2-oxo-2H-chromen-7-yl butyrate] | 107 to 108 °C | 21% | 25.8% |  |  |  |
| CCCCC(=O)Oc1cc2oc(=O)c(Cc3ccccc3)c(C)c2cc1Cl [Compound 49, 3-Benzyl-6-chloro-4-methyl-2-oxo-2H-chromen-7-yl pentanoate] | 108 to 109 °C | 8.15% | 20.3% |  |  |  |
| CCc1c(Cc2ccccc2)c(=O)oc2cc(O)ccc12 [Compound 4d, 3-Benzyl-4-ethyl-7-hydroxy-2H-chromen-2-one] | 140 to 141 °C | 27% | 10.4% |  |  |  |
| CCC(=O)Oc1cc2oc(=O)c(Cc3ccccc3)c(C)c2cc1Cl [Compound 34, 3-Benzyl-6-chloro-4-methyl-2-oxo-2H-chromen-7-yl propionate] | 124 to 126 °C | 70% | 72.4% |  |  | 326 nM |
| COc1ccc2c(C#N)c(C(=O)c3ccccc3)c(=O)oc2c1 [Compound 88, 3-Benzoyl-4-cyano-7-methoxycoumarin] | 175 to 176 °C | 32.4% | 22.9% |  |  |  |
| CCCC(=O)Oc1ccc2c(CC)c(Cc3ccc(F)cc3)c(=O)oc2c1 [Compound 46, 4-Ethyl-3-(4-fluorobenzyl)-2-oxo-2H-chromen-7-yl butyrate] | 79 °C | 76.9% | 96.5% | active |  | 909 nM |
| CCN(CC)C(=O)Oc1cc2oc(=O)c(Cc3ccccc3)c(C)c2cc1Cl [Compound 21, 3-Benzyl-6-chloro-4-methyl-2-oxo-2H-chromen-7-yl diethylcarbamate] | 83 to 84 °C | 27% | 48.1% |  |  |  |
| Cc1ccc(S(=O)(=O)Oc2cc3oc(=O)c(Cc4ccccc4)c(C)c3cc2Cl)cc1 [Compound 77, 3-Benzyl-6-chloro-4-methyl-2-oxo-2H-chromen-7-yl 4-methylbenzenesulfonate] | 173 to 174 °C | 31.7% | 29.6% |  |  |  |
| COc1ccc2c(C(=O)O)c(C(=O)c3ccccc3)c(=O)oc2c1 [Compound 89, 3-Benzoyl-4-carboxy-7-methoxycoumarin] | 196 to 197 °C | 16.5% | 6.34% |  |  |  |
| CCCc1c(Cc2ccc(F)cc2)c(=O)oc2cc(OC(=O)C(C)(C)C)ccc12 [Compound 61, 3-(4-Fluorobenzyl)-2-oxo-4-propyl-2H-chromen-7-yl pivalate] | 138 to 140 °C | 31.6% | 40.9% |  |  |  |
| CCCc1c(Cc2ccc(F)cc2)c(=O)oc2cc(OC(=O)N(CC)CC)ccc12 [Compound 26, 3-(4-Fluorobenzyl)-2-oxo-4-propyl-2H-chromen-7-yl diethylcarbamate] | 51 to 52 °C | 35.2% | 37.5% |  |  |  |
| O=c1cc(CCl)c2ccc(O)cc2o1 [Compound 4i, 4-(Chloromethyl)-7-hydroxy-2H-chromen-2-one] | 166 to 167 °C | 33.3% | 22.4% |  |  |  |

| SMILES | melting point | inhibition at 2 µM (phosphorylated MEK1) | inhibition at 20 µM (phosphorylated MEK1) | binding affinity (in words) (phosphorylated MEK1) | IC50 (phosphorylated MEK1) | IC50 (phosphorylated MEK1; [1]) |
| --- | --- | --- | --- | --- | --- | --- |
| CCc1c(Cc2ccc(F)cc2)c(=O)oc2cc(O)ccc12 [Compound 4g, 4-Ethyl-3-(4-fluorobenzyl)-7-hydroxy-2H-chromen-2-one] | 131 to 132 °C | 10.9% | 19.6% |  |  |  |
| Cc1c(Cc2ccccc2)c(=O)oc2cc(OC(=O)C(C)(C)C)ccc12 [Compound 55, 3-Benzyl-4-methyl-2-oxo-2H-chromen-7-yl pivalate] | 157 to 158 °C | 14.6% | 14.8% |  |  |  |
| CCCc1c(Cc2ccccc2)c(=O)oc2cc(OC(C)=O)ccc12 [Compound 30, 3-Benzyl-2-oxo-4-propyl-2H-chromen-7-yl acetate] | 139 to 140 °C | 15.5% | 25.6% |  |  |  |
| CCCc1c(Cc2ccccc2)c(=O)oc2cc(O)ccc12 [Compound 4e, 3-Benzyl-7-hydroxy-4-propyl-2H-chromen-2-one] | 139 to 140 °C | 29.1% | 7.06% |  |  |  |
| COc1ccc2cc(Cc3ccccc3)c(=O)oc2c1 [Compound 83, 3-Benzyl-7-methoxy-2H-chromen-2-one] | 102 to 103 °C | 23% | 2.93% |  |  |  |
| Cc1c(Cc2ccccc2)c(=O)oc2cc(OC(=O)c3ccccc3)c(Cl)cc12 [Compound 63, 3-Benzyl-6-chloro-4-methyl-2-oxo-2H-chromen-7-yl benzoate] | 133 to 135 °C | 33.3% | 28% |  |  |  |
| CCN(CC)C(=O)Oc1ccc2c(C)c(Cc3ccccc3)c(=O)oc2c1 [Compound 20, 3-Benzyl-4-methyl-2-oxo-2H-chromen-7-yl diethylcarbamate] | 109 °C | 15.5% | 20% |  |  |  |
| CCCCC(=O)Oc1ccc2c(C)c(Cc3ccc(F)cc3)c(=O)oc2c1 [Compound 53, 3-(4-Fluorobenzyl)-4-methyl-2-oxo-2H-chromen-7-yl pentanoate] | 83 to 84 °C | 34.7% | 38.3% |  |  |  |
| Cc1ccc(S(=O)(=O)Oc2ccc3c(C)c(Cc4ccccc4)c(=O)oc3c2)cc1 [Compound 76, 3-Benzyl-4-methyl-2-oxo-2H-chromen-7-yl 4-methylbenzenesulfonate] | 138 to 139 °C | 2.87% | -2.36% |  |  |  |
| CCCCC(=O)Oc1ccc2c(CC)c(Cc3ccccc3)c(=O)oc2c1 [Compound 50, 3-Benzyl-4-ethyl-2-oxo-2H-chromen-7-yl pentanoate] | 72 to 73 °C | 37.2% | 43.2% |  |  |  |
| CCc1c(Cc2ccccc2)c(=O)oc2cc(OC(=O)N(CC)CC)ccc12 [Compound 22, 3-Benzyl-4-ethyl-2-oxo-2H-chromen-7-yl diethylcarbamate] | 64 to 65 °C | 6.63% | 48.1% |  |  |  |
| CCCC(=O)Oc1ccc2c(C)c(Cc3ccc(F)cc3)c(=O)oc2c1 [Compound 45, 3-(4-Fluorobenzyl)-4-methyl-2-oxo-2H-chromen-7-yl butyrate] | 85 to 86 °C | 45.3% | 72.3% |  |  | 824 nM |
| Cc1ccc(S(=O)(=O)Oc2ccc3c(C)c(Cc4ccc(F)cc4)c(=O)oc3c2)cc1 [Compound 81, 3-(4-Fluorobenzyl)-4-methyl-2-oxo-2H-chromen-7-yl 4-methylbenzenesulfonate] | 95 to 96 °C | 8.05% | 9.55% |  |  |  |
| Cc1c(Cc2ccccc2)c(=O)oc2cc(OC(=O)C(C)(C)C)c(Cl)cc12 [Compound 56, 3-Benzyl-6-chloro-4-methyl-2-oxo-2H-chromen-7-yl pivalate] | 113 °C | 16.6% | 34.1% |  |  |  |
| COc1ccc2cc(Cc3ccc(F)cc3)c(=O)oc2c1 [Compound 84, 3-(4-Fluorobenzyl)-7-methoxy-2H-chromen-2-one] | 94 to 95 °C | 17.6% | 15.4% |  |  |  |
| CCC(=O)Oc1ccc2c(C)c(Cc3ccccc3)c(=O)oc2c1 [Compound 35, 3-Benzyl-4-methyl-2-oxo-2H-chromen-7-yl propionate] | 118 to 119 °C | 64.5% | 85% |  |  | 1030 nM |
